The values below are quoted from earlier work in US20010049373A1, “Materials and methods for killing nematodes and nematode eggs” (priority 2000, published 2001).

In data set [1] the test system is root-knot nematode, Meloidogyne incognita. The conditions noted are these: cited from earlier work.
The test system of another data set is tomatoes or cucumbers. The conditions noted are these: rates of up to 10 kg/ha; cited from earlier work.
Data set [2] relates to Colorado potato beetle, potato tuberworm, beet armyworm, diamondback moth, gypsy moth, and the European corn borer. The conditions noted are these: cited from earlier work.

For the molecule `CC[C@H](C)[C@H]1O[C@]2(CC(O)[C@@H]1C)C[C@@H]1C[C@@H](C/C=C(\C)[C@@H](OC3CC(OC)C(OC4CC(OC)C(O)C(C)O4)C(C)O3)[C@@H](C)/C=C/C=C3\CO[C@@H]4[C@H](O)C(C)=C[C@@H](C(=O)O1)[C@]34O)O2` (stereo partly shown) [Avermectin B2a], the “activity against the root-knot nematode” value in data set [1] (Meloidogyne incognita) is listed as “active”. In addition, the “potency relative to commercial contact nematicides” value in data set [1] (incorporated into soil at 0.16-0.25 kg/ha) was 10-30 times. The “toxicity to tomatoes or cucumbers” value in the data set on tomatoes or cucumbers is reported as “not toxic”.

In the case of Avermectin B1, the “effect on insect pests” value in data set [2] is “effective”.
